Literature values in US9034798B2, “Capture compounds, collections thereof and methods for analyzing the proteome and complex compositions” (CAPROTEC BIOANALYTICS GMBH, priority 2003, dated 2015).

Conditions: for drug-induced hepatotoxicity: clinical studies; for heart failure: six male patients with poor heart and kidney function; for deaths: reported before withdrawal from the market

SMILES: CCc1ccc(CCOc2ccc(CC3SC(=O)NC3=O)cc2)nc1 (stereo not drawn) [Actos, Pioglitazone]
- drug-induced hepatotoxicity: no evidence of drug-induced hepatotoxicity
- heart failure: caused heart failure

SMILES: CN(CCOc1ccc(CC2SC(=O)NC2=O)cc1)c1ccccn1 (stereo not drawn) [Avandia, Rosiglitazone]
- drug-induced hepatotoxicity: no evidence of drug-induced hepatotoxicity
- heart failure: caused heart failure

SMILES: COCc1c(C(C)C)nc(C(C)C)c(/C=C/[C@@H](O)C[C@@H](O)CC(=O)O)c1-c1ccc(F)cc1 [Baycol, cerivastatin sodium]
- deaths: 31 deaths

SMILES: Cc1c(C)c2c(c(C)c1O)CCC(C)(COc1ccc(CC3SC(=O)NC3=O)cc1)O2 (stereo not drawn) [Rezulin, Troglitazone]
- deaths: 398 deaths
